Values joined by “and” are separate entries in the source; they are usually repeats but may differ in a detail not shown here. Equal entries are not always repeated. “Also recorded” adds a separate entry of the source.
What was measured:
[1] = oral 60 mg/BID over 24 weeks; ref Kim et al., 2017; cited from earlier work
S. mansoni = assay: Murine model of S. mansoni infection: worm burdens recovered by perfusion; assay type: in vivo, Schistosoma mansoni; conditions: mice; for reduction in female worm burden / reduction in male worm burden: 42 dpi

| SMILES | tolerability [1] | efficacy against 21-day-old juvenile parasites (S. mansoni; 100 mg/kg PO QDx4 from 21 dpi, 100 mg/kg) | reduction in female worm burden (S. mansoni; single oral 200 mg/kg) [%] | reduction in male worm burden (S. mansoni; single oral 200 mg/kg) [%] | reduction in female worm burden (S. mansoni; single oral 400 mg/kg) [%] | reduction in male worm burden (S. mansoni; single oral 400 mg/kg, 400 mg/kg) | worm kill, juvenile 21 day-old parasites (S. mansoni; single oral doses) |
| --- | --- | --- | --- | --- | --- | --- | --- |
| Cc1c(-c2cnccn2)ssc1=S [Oltipraz] | well-tolerated |  |  |  |  |  |  |
| O=C(C1CCCCC1)N1CC(=O)N2CCc3ccccc3C2C1 (stereo not shown) [PZQ, praziquantel] |  | ineffective; also recorded: essentially inactive | 97 | 78 | 100 | 100% and 97% | zero kill |

From paper PMC6287543 (International Journal for Parasitology: Drugs and Drug …, 2018)
